From patent publication US20130053382A1, “Inhibitors of Phosphoinositide Dependent Kinase 1 (PDK1)” (priority 2010, published 2013)
Counter-ions that a name gives are not always drawn.

The molecules below were run against T1, recombinant human PDK1 (Homo sapiens, UniProt O15530) (assay: PDK1 IMAP fluorescence polarization kinase assay). Details: 10 nM PDK1, 100 nM peptide substrate, 100 nM PIFtide, 2.5 uM ATP, 1.5 hours.
T1 construct: containing amino acids 51-556 of the human PDK1 enzyme; made in house; host or cells: Sf9 insect cells
T1 sequence (O15530 51-556): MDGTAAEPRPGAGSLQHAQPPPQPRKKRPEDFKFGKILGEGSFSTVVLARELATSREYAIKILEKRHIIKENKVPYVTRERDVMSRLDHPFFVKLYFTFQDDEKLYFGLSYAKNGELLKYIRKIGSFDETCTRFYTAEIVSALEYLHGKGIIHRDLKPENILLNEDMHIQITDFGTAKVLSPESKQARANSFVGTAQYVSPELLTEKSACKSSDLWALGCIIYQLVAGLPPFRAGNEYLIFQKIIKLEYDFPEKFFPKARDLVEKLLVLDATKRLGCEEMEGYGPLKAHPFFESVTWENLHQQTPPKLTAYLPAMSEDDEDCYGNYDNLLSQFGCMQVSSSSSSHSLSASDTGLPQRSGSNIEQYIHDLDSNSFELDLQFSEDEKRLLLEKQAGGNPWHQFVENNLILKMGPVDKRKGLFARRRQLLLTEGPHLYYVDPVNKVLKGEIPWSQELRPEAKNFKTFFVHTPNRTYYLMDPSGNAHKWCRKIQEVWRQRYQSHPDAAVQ
Assay type: biochemical

| Structure (SMILES) | IC50 [nM] |
| --- | --- |
| Cc1cc(-c2nc(C(=O)Nc3cc4[nH]ncc4cc3-c3ccc4c(c3)CNC4)cs2)[nH]n1 [Compound 5-7, N-(5-(isoindolin-5-yl)-1H-indazol-6-yl)-2-(3-methyl-1H-pyrazol-5-yl)thiazole-4-carboxamide] | 85 |
| Cc1cc(CN)ccc1-c1cc2cn[nH]c2cc1NC(=O)c1csc(-c2cc(C(F)(F)F)n[nH]2)n1 [Compound 4-6, N-(5-(4-(aminomethyl)-2-methylphenyl)-1H-indazol-6-yl)-2-(3-(trifluoromethyl)-1H-pyrazol-5-yl)thiazole-4-carboxamide] | 108 |

Next, values leading:

| IC50 [nM] | Structure (SMILES) |
| --- | --- |
| 1860 | NC1(c2ccc(-c3cc4cn[nH]c4cc3NC(=O)c3csc(-c4cc(C(F)(F)F)n[nH]4)n3)cc2)CC1 [Compound 1-18, N-(5-(4-(1-aminocyclopropyl)phenyl)-1H-indazol-6-yl)-2-(3-(trifluoromethyl)-1H-pyrazol-5-yl)thiazole-4-carboxamide] |
| 33 | O=C(Nc1cc2[nH]ncc2cc1-c1cccc(CN2CCCC2)c1)c1csc(-c2cc(C(F)(F)F)n[nH]2)n1 [Compound 1-11, N-(5-(3-(pyrrolidin-1-ylmethyl)phenyl)-1H-indazol-6-yl)-2-(3-(trifluoromethyl)-1H-pyrazol-5-yl)thiazole-4-carboxamide] |
| 170 | O=C(Nc1cc2[nH]ncc2cc1-c1cccc(CN2CCCCC2)c1)c1csc(-c2cc(C(F)(F)F)n[nH]2)n1 [Compound 3-5, N-(5-(3-(piperidin-1-ylmethyl)phenyl)-1H-indazol-6-yl)-2-(3-(trifluoromethyl)-1H-pyrazol-5-yl)thiazole-4-carboxamide hydrochloride] |
